In PubChem BioAssay (NCI):
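48-hour exposure; five concentrations; linearly interpolated endpoints. GI50 marks 50% less growth. TGI denotes the concentration required for complete inhibition of growth.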

Legend:
Assay in all cases: DTP human tumour cell line panel, 48 h
786-0 renal = test system: 786-0 renal
A498 renal = test system: A498 renal
A549 NSCLC = test system: A549 NSCLC
ACHN renal = test system: ACHN renal
BT-549 breast = test system: BT-549 breast
CAKI-1 renal = test system: CAKI-1 renal
CCRF-CEM leukemia = test system: CCRF-CEM leukemia
COLO 205 colon = test system: COLO 205 colon
DU-145 prostate = test system: DU-145 prostate
EKVX NSCLC = test system: EKVX NSCLC
HCC-2998 colon = test system: HCC-2998 colon
HCT-116 colon = test system: HCT-116 colon
HCT-15 colon = test system: HCT-15 colon
HL-60(TB) leukemia = test system: HL-60(TB) leukemia
HOP-62 NSCLC = test system: HOP-62 NSCLC
HOP-92 NSCLC = test system: HOP-92 NSCLC
HS 578T breast = test system: HS 578T breast
HT29 colon = test system: HT29 colon
IGROV1 ovarian = test system: IGROV1 ovarian
K-562 leukemia = test system: K-562 leukemia
KM12 colon = test system: KM12 colon
LOX IMVI melanoma = test system: LOX IMVI melanoma
MALME-3M melanoma = test system: MALME-3M melanoma
MCF7 breast = test system: MCF7 breast
MDA-MB-231 breast = test system: MDA-MB-231 breast
MDA-MB-435 = test system: MDA-MB-435
MOLT-4 leukemia = test system: MOLT-4 leukemia
NCI-H226 lung = test system: NCI-H226 lung
NCI-H23 lung = test system: NCI-H23 lung
NCI-H460 lung = test system: NCI-H460 lung
NCI-H522 lung = test system: NCI-H522 lung
NCI/ADR-RES ovarian = test system: NCI/ADR-RES ovarian
OVCAR-3 ovarian = test system: OVCAR-3 ovarian
OVCAR-4 ovarian = test system: OVCAR-4 ovarian
OVCAR-5 ovarian = test system: OVCAR-5 ovarian
OVCAR-8 ovarian = test system: OVCAR-8 ovarian
PC-3 prostate = test system: PC-3 prostate
RPMI-8226 leukemia = test system: RPMI-8226 leukemia
RXF 393 renal = test system: RXF 393 renal
SF-268 CNS = test system: SF-268 CNS
SF-295 CNS = test system: SF-295 CNS
SF-539 CNS = test system: SF-539 CNS
SK-MEL-2 melanoma = test system: SK-MEL-2 melanoma
SK-MEL-28 melanoma = test system: SK-MEL-28 melanoma
SK-MEL-5 melanoma = test system: SK-MEL-5 melanoma
SK-OV-3 ovarian = test system: SK-OV-3 ovarian
SN12C renal = test system: SN12C renal
SNB-19 CNS = test system: SNB-19 CNS
SNB-75 CNS = test system: SNB-75 CNS
SR leukemia = test system: SR leukemia
SW-620 colon = test system: SW-620 colon
T-47D breast = test system: T-47D breast
TK-10 renal = test system: TK-10 renal
U251 CNS = test system: U251 CNS
UACC-257 melanoma = test system: UACC-257 melanoma
UACC-62 melanoma = test system: UACC-62 melanoma
UO-31 renal = test system: UO-31 renal
M14 melanoma = test system: M14 melanoma

Cn1cccc1-c1cc(-c2cccs2)nc(N)c1C#N
GI50 (786-0 renal): > 100 µM
TGI (786-0 renal): > 100 µM
GI50 (A498 renal): > 100 µM
TGI (A498 renal): > 100 µM
GI50 (A549 NSCLC): > 100 µM
TGI (A549 NSCLC): > 100 µM
GI50 (ACHN renal): > 100 µM
TGI (ACHN renal): > 100 µM
GI50 (BT-549 breast): > 100 µM
TGI (BT-549 breast): > 100 µM
GI50 (CAKI-1 renal): > 100 µM
TGI (CAKI-1 renal): > 100 µM
GI50 (CCRF-CEM leukemia): > 100 µM
TGI (CCRF-CEM leukemia): > 100 µM
GI50 (COLO 205 colon): > 100 µM
TGI (COLO 205 colon): > 100 µM
GI50 (DU-145 prostate): > 100 µM
TGI (DU-145 prostate): > 100 µM
GI50 (EKVX NSCLC): > 100 µM
TGI (EKVX NSCLC): > 100 µM
GI50 (HCC-2998 colon): > 100 µM
TGI (HCC-2998 colon): > 100 µM
GI50 (HCT-116 colon): > 100 µM
TGI (HCT-116 colon): > 100 µM
GI50 (HCT-15 colon): > 100 µM
TGI (HCT-15 colon): > 100 µM
GI50 (HL-60(TB) leukemia): > 100 µM
TGI (HL-60(TB) leukemia): > 100 µM
GI50 (HOP-62 NSCLC): > 100 µM
TGI (HOP-62 NSCLC): > 100 µM
GI50 (HOP-92 NSCLC): > 100 µM
TGI (HOP-92 NSCLC): > 100 µM
GI50 (HS 578T breast): > 100 µM
TGI (HS 578T breast): > 100 µM
GI50 (HT29 colon): > 100 µM
TGI (HT29 colon): > 100 µM
GI50 (IGROV1 ovarian): > 100 µM
TGI (IGROV1 ovarian): > 100 µM
GI50 (K-562 leukemia): > 100 µM
TGI (K-562 leukemia): > 100 µM
GI50 (KM12 colon): > 100 µM
TGI (KM12 colon): > 100 µM
GI50 (LOX IMVI melanoma): > 100 µM
TGI (LOX IMVI melanoma): > 100 µM
GI50 (MALME-3M melanoma): > 100 µM
TGI (MALME-3M melanoma): > 100 µM
GI50 (MCF7 breast): > 100 µM
TGI (MCF7 breast): > 100 µM
GI50 (MDA-MB-231 breast): > 100 µM
TGI (MDA-MB-231 breast): > 100 µM
GI50 (MDA-MB-435): > 100 µM
TGI (MDA-MB-435): > 100 µM
GI50 (MOLT-4 leukemia): > 100 µM
TGI (MOLT-4 leukemia): > 100 µM
GI50 (NCI-H226 lung): > 100 µM
TGI (NCI-H226 lung): > 100 µM
GI50 (NCI-H23 lung): > 100 µM
TGI (NCI-H23 lung): > 100 µM
GI50 (NCI-H460 lung): > 100 µM
TGI (NCI-H460 lung): > 100 µM
GI50 (NCI-H522 lung): > 100 µM
TGI (NCI-H522 lung): > 100 µM
GI50 (NCI/ADR-RES ovarian): > 100 µM
TGI (NCI/ADR-RES ovarian): > 100 µM
GI50 (OVCAR-3 ovarian): > 100 µM
TGI (OVCAR-3 ovarian): > 100 µM
GI50 (OVCAR-4 ovarian): > 100 µM
TGI (OVCAR-4 ovarian): > 100 µM
GI50 (OVCAR-5 ovarian): > 100 µM
TGI (OVCAR-5 ovarian): > 100 µM
GI50 (OVCAR-8 ovarian): > 100 µM
TGI (OVCAR-8 ovarian): > 100 µM
GI50 (PC-3 prostate): > 100 µM
TGI (PC-3 prostate): > 100 µM
GI50 (RPMI-8226 leukemia): > 100 µM
TGI (RPMI-8226 leukemia): > 100 µM
GI50 (RXF 393 renal): > 100 µM
TGI (RXF 393 renal): > 100 µM
GI50 (SF-268 CNS): > 100 µM
TGI (SF-268 CNS): > 100 µM
GI50 (SF-295 CNS): > 100 µM
TGI (SF-295 CNS): > 100 µM
GI50 (SF-539 CNS): > 100 µM
TGI (SF-539 CNS): > 100 µM
GI50 (SK-MEL-2 melanoma): > 100 µM
TGI (SK-MEL-2 melanoma): > 100 µM
GI50 (SK-MEL-28 melanoma): > 100 µM
TGI (SK-MEL-28 melanoma): > 100 µM
GI50 (SK-MEL-5 melanoma): > 100 µM
TGI (SK-MEL-5 melanoma): > 100 µM
GI50 (SK-OV-3 ovarian): > 100 µM
TGI (SK-OV-3 ovarian): > 100 µM
GI50 (SN12C renal): > 100 µM
TGI (SN12C renal): > 100 µM
GI50 (SNB-19 CNS): > 100 µM
TGI (SNB-19 CNS): > 100 µM
GI50 (SNB-75 CNS): 46 µM
TGI (SNB-75 CNS): > 100 µM
GI50 (SR leukemia): 5.39 µM
TGI (SR leukemia): 68.2 µM
GI50 (SW-620 colon): > 100 µM
TGI (SW-620 colon): > 100 µM
GI50 (T-47D breast): > 100 µM
TGI (T-47D breast): > 100 µM
GI50 (TK-10 renal): > 100 µM
TGI (TK-10 renal): > 100 µM
GI50 (U251 CNS): > 100 µM
TGI (U251 CNS): > 100 µM
GI50 (UACC-257 melanoma): > 100 µM
TGI (UACC-257 melanoma): > 100 µM
GI50 (UACC-62 melanoma): 87 µM
TGI (UACC-62 melanoma): > 100 µM
GI50 (UO-31 renal): > 100 µM
TGI (UO-31 renal): > 100 µM

O=C1c2ccccc2S(=O)(=O)c2c1cccc2[N+](=O)[O-]
TGI (786-0 renal): 3.13 µM
TGI (A498 renal): > 8.45 µM
TGI (A549 NSCLC): > 10 µM
TGI (ACHN renal): 8.04 µM
TGI (BT-549 breast): > 8.34 µM
TGI (CAKI-1 renal): 9.83 µM
TGI (CCRF-CEM leukemia): 4.19 µM
TGI (COLO 205 colon): 2.77 µM
TGI (DU-145 prostate): > 10 µM
TGI (EKVX NSCLC): > 8.6 µM
TGI (HCC-2998 colon): > 10 µM
TGI (HCT-116 colon): 2.63 µM
TGI (HCT-15 colon): 2.95 µM
TGI (HL-60(TB) leukemia): 4.97 µM
TGI (HOP-62 NSCLC): > 10 µM
TGI (HOP-92 NSCLC): 9 µM
TGI (HS 578T breast): > 10 µM
TGI (HT29 colon): > 7.01 µM
TGI (IGROV1 ovarian): 5.08 µM
TGI (K-562 leukemia): > 10 µM
TGI (KM12 colon): 5.08 µM
TGI (LOX IMVI melanoma): 5.21 µM
TGI (M14 melanoma): 3.4 µM
TGI (MALME-3M melanoma): 3.02 µM
TGI (MCF7 breast): 3.31 µM
TGI (MDA-MB-231 breast): 5.36 µM
TGI (MDA-MB-435): 3.64 µM
TGI (MOLT-4 leukemia): 6.04 µM
TGI (NCI-H226 lung): > 10 µM
TGI (NCI-H23 lung): > 8.17 µM
TGI (NCI-H460 lung): > 10 µM
TGI (NCI-H522 lung): 3.09 µM
TGI (NCI/ADR-RES ovarian): 6.55 µM
TGI (OVCAR-3 ovarian): 2.51 µM
TGI (OVCAR-4 ovarian): 4.6 µM
TGI (OVCAR-5 ovarian): > 10 µM
TGI (OVCAR-8 ovarian): 5.46 µM
TGI (PC-3 prostate): > 9.02 µM
TGI (RPMI-8226 leukemia): 5.94 µM
TGI (RXF 393 renal): 8.44 µM
TGI (SF-268 CNS): > 9.38 µM
TGI (SF-295 CNS): > 10 µM
TGI (SF-539 CNS): 4.34 µM
TGI (SK-MEL-2 melanoma): > 10 µM
TGI (SK-MEL-28 melanoma): 5.25 µM
TGI (SK-MEL-5 melanoma): 2.46 µM
TGI (SK-OV-3 ovarian): > 10 µM
TGI (SN12C renal): 6.56 µM
TGI (SNB-19 CNS): > 10 µM
TGI (SNB-75 CNS): > 9.55 µM
TGI (SR leukemia): 5.28 µM
TGI (SW-620 colon): 3.47 µM
TGI (T-47D breast): 5.9 µM
TGI (TK-10 renal): > 10 µM
TGI (U251 CNS): > 8.28 µM
TGI (UACC-257 melanoma): 4.76 µM
TGI (UACC-62 melanoma): 3.48 µM
TGI (UO-31 renal): 3.92 µM
